{
  "source": "patent US20220409620A1",
  "about": "“REDUCING IMMUNOGENICITY TO PEGLOTICASE” (Horizon Pharma Rheumatology LLC, priority 2016, published 2022)",
  "key": {"[1]": {"system": "adult patients with uncontrolled gout", "excerpt": "As used herein, an “adverse event” or “AE” refers to any untoward medical occurrence associated with the use of a drug in humans, whether it is considered drug-related or not. An AE or suspected adverse reaction is considered a “serious adverse event” or “SAE” if, in the view of either the Investigator or Sponsor, it results in any of the following outcomes: (1) Death, (2) Life-threatening: an AE is considered “life-threatening” if, in the view of either the Investigator or Sponsor, its occurrence places the subject or subject at immediate risk of death. […] (5) A congenital anomaly/birth defect; (6) Important medical events that may not result in death, be life-threatening, or require hospitalization may be considered serious when, based upon appropriate medical judgment, they may jeopardize the patient or subject and may require medical or surgical intervention to prevent one of the outcomes listed in this definition.\nSafety Variables: Safety was assessed via AE and concomitant medication use monitoring, physical examinations, vital signs, clinical safety laboratory evaluations (hematology, chemistry, urine uric acid:creatinine ratio), pregnancy testing (if applicable), electrocardiograms (ECGs), and AEs of special interest (i.e., IRs, anaphylaxis, gout flares, and cardiovascular events).\nAEs of special interest may include IRs, anaphylaxis, gout flares, and cardiovascular events.\nSeverity in accordance with the disclosure is reported according to the following: Grade 1 (Mild)—No interference with daily activity. Grade 2 (Moderate)—Some interference with daily activity but medical intervention not required (e.g., doctor visit and/or medication); over the counter medicine permitted. Grade 3 (Severe)—Prevents daily activity and requires medical intervention (e.g., doctor visit and/or medication). Grade 4 (Potentially Life-threatening)—Emergency room visit or hospitalization.\nAn AE was defined as any untoward event, whether or not it was considered related to the use of pegloticase or MTX. Any worsening (i.e., any clinically significant adverse change in frequency or intensity) of a preexisting condition which was temporally associated with the use of pegloticase or MTX was also considered an AE. Abnormal laboratory values or test results constitute AEs only if they induce clinical signs or symptoms or require therapy, and were recorded on the AE CRF under the signs, symptoms or were associated with diagnoses associated with them. Screening conditions were not considered AE; however, worsening of a preexisting condition may be considered an AE. AEs were collected starting at the baseline, Visit 1.\nTEAEs during the Pegloticase+IMM Period were defined as events that occur after the start of the first pegloticase infusion through 30 days after the last dose of pegloticase and/or MTX or placebo for MTX (whichever was later). TEAEs that occur during the MTX Tolerability Assessment Period prior to randomization (Weeks −6 to −4) was summarized separately for the MTX population. […] AEs that occur more than 30 days after the last dose of pegloticase and/or MTX or placebo for MTX through the 6-month follow-up visit was also summarized.\nThe number and percentage of subjects experiencing AEs were summarized by system organ class and preferred term. Summaries by maximum severity and relationship to MTX and/or pegloticase was also provided. SAEs and AEs leading to discontinuation of MTX and/or pegloticase were presented by system organ class and preferred term."}, "[2]": {"assay": "Stability of pegloticase diluted in infusion bags", "assay_type": "physicochemical", "conditions": "at 2° C. to 8° C. and at room temperature (20° C. to 25° C.)", "experimental": "Pegloticase diluted in infusion bags was stable for 4 hours at 2° C. to 8° C. (36° F. to 46° F.) and at room temperature (20° C. to 25° C., 68° F. to 77° F.); however, the diluted solution was stored under refrigeration, not frozen, protected from light, and used within 4 hours of dilution. Before administration, the diluted solution of pegloticase was allowed to reach room temperature. Pegloticase in a vial or IV infusion fluid was never subjected to artificial heating."}, "[3]": {"conditions": "Methotrexate Run-in Period, ITT (N = 15)"}, "[4]": {"conditions": "Methotrexate Run-in Period, mITT (N = 14)"}},
  "note": "Like-named read-outs stand apart in the source and are kept apart here.",
  "data": [
    {"molecule": "CN(Cc1cnc2nc(N)nc(N)c2n1)c1ccc(C(=O)N[C@@H](CCC(=O)O)C(=O)O)cc1", "note": "[MTX, methotrexate]", "values": [
      {"measurement": "Infections And Infestations, %", "setting": "[1]", "result": "(13.3) %"},
      {"measurement": "Abdominal Discomfort, %", "setting": "[1]; [3]", "result": "(13.3) %"},
      {"measurement": "Abdominal Discomfort, Incidence Rate", "setting": "[1]; [3]", "result": "1.8 Events/PY of MTX"},
      {"measurement": "Any TEAEs, %", "setting": "[1]; [3]", "result": "(66.7) %"},
      {"measurement": "Any TEAEs, Incidence Rate", "setting": "[1]; [3]", "result": "18.2 Events/PY of MTX"},
      {"measurement": "Blood And Lymphatic System Disorders, %", "setting": "[1]; [3]", "result": "(6.7) %"},
      {"measurement": "Blood And Lymphatic System Disorders, Incidence Rate", "setting": "[1]; [3]", "result": "1.8 Events/PY of MTX"},
      {"measurement": "Chronic Sinusitis, %", "setting": "[1]; [3]", "result": "(6.7) %"},
      {"measurement": "Chronic Sinusitis, Incidence Rate", "setting": "[1]; [3]", "result": "0.9 Events/PY of MTX"},
      {"measurement": "Cough, %", "setting": "[1]; [3]", "result": "(6.7) %"},
      {"measurement": "Cough, Incidence Rate", "setting": "[1]; [3]", "result": "0.9 Events/PY of MTX"},
      {"measurement": "Dental Caries, %", "setting": "[1]; [3]", "result": "(6.7) %"},
      {"measurement": "Dental Caries, Incidence Rate", "setting": "[1]; [3]", "result": "0.9 Events/PY of MTX"},
      {"measurement": "Diarrhoea, %", "setting": "[1]; [3]", "result": "(6.7) %"},
      {"measurement": "Diarrhoea, Incidence Rate", "setting": "[1]; [3]", "result": "0.9 Events/PY of MTX"},
      {"measurement": "Dry Eye, %", "setting": "[1]; [3]", "result": "(6.7) %"},
      {"measurement": "Dry Eye, Incidence Rate", "setting": "[1]; [3]", "result": "0.9 Events/PY of MTX"},
      {"measurement": "Eye Disorders, %", "setting": "[1]; [3]", "result": "(6.7) %"},
      {"measurement": "Eye Disorders, Incidence Rate", "setting": "[1]; [3]", "result": "0.9 Events/PY of MTX"},
      {"measurement": "Gastrointestinal Disorders, %", "setting": "[1]; [3]", "result": "(33.3) %"},
      {"measurement": "Gastrointestinal Disorders, Incidence Rate", "setting": "[1]; [3]", "result": "5.5 Events/PY of MTX"},
      {"measurement": "Gout, %", "setting": "[1]; [3]", "result": "(33.3) %"},
      {"measurement": "Gout, Incidence Rate", "setting": "[1]; [3]", "result": "5.5 Events/PY of MTX"},
      {"measurement": "Headache, %", "setting": "[1]; [3]", "result": "(6.7) %"},
      {"measurement": "Headache, Incidence Rate", "setting": "[1]; [3]", "result": "0.9 Events/PY of MTX"},
      {"measurement": "Leukopenia, %", "setting": "[1]; [3]", "result": "(6.7) %"},
      {"measurement": "Leukopenia, Incidence Rate", "setting": "[1]; [3]", "result": "0.9 Events/PY of MTX"},
      {"measurement": "Metabolism And Nutrition Disorders, %", "setting": "[1]; [3]", "result": "(33.3) %"},
      {"measurement": "Metabolism And Nutrition Disorders, Incidence Rate", "setting": "[1]; [3]", "result": "5.5 Events/PY of MTX"},
      {"measurement": "Nasopharyngitis, %", "setting": "[1]; [3]", "result": "(6.7) %"},
      {"measurement": "Nasopharyngitis, Incidence Rate", "setting": "[1]; [3]", "result": "0.9 Events/PY of MTX"},
      {"measurement": "Nausea, %", "setting": "[1]; [3]", "result": "(13.3) %"},
      {"measurement": "Nausea, Incidence Rate", "setting": "[1]; [3]", "result": "1.8 Events/PY of MTX"},
      {"measurement": "Nervous System Disorders, %", "setting": "[1]; [3]", "result": "(6.7) %"},
      {"measurement": "Nervous System Disorders, Incidence Rate", "setting": "[1]; [3]", "result": "0.9 Events/PY of MTX"},
      {"measurement": "Neutropenia, %", "setting": "[1]; [3]", "result": "(6.7) %"},
      {"measurement": "Neutropenia, Incidence Rate", "setting": "[1]; [3]", "result": "0.9 Events/PY of MTX"},
      {"measurement": "Pruritus, %", "setting": "[1]; [3]", "result": "(6.7) %"},
      {"measurement": "Pruritus, Incidence Rate", "setting": "[1]; [3]", "result": "0.9 Events/PY of MTX"},
      {"measurement": "Respiratory, Thoracic And Mediastinal Disorders, %", "setting": "[1]; [3]", "result": "(6.7) %"},
      {"measurement": "Respiratory, Thoracic And Mediastinal Disorders, Incidence Rate", "setting": "[1]; [3]", "result": "0.9 Events/PY of MTX"},
      {"measurement": "Skin And Subcutaneous Tissue Disorders, %", "setting": "[1]; [3]", "result": "(6.7) %"},
      {"measurement": "Skin And Subcutaneous Tissue Disorders, Incidence Rate", "setting": "[1]; [3]", "result": "0.9 Events/PY of MTX"},
      {"measurement": "Abdominal Discomfort, %", "setting": "[1]; [4]", "result": "(14.3) %"},
      {"measurement": "Abdominal Discomfort, Incidence Rate", "setting": "[1]; [4]", "result": "2.0 Events/PY of MTX"},
      {"measurement": "Any TEAEs, %", "setting": "[1]; [4]", "result": "(71.4) %"},
      {"measurement": "Any TEAEs, Incidence Rate", "setting": "[1]; [4]", "result": "20.0 Events/PY of MTX"},
      {"measurement": "Blood And Lymphatic System Disorders, %", "setting": "[1]; [4]", "result": "(7.1) %"},
      {"measurement": "Blood And Lymphatic System Disorders, Incidence Rate", "setting": "[1]; [4]", "result": "2.0 Events/PY of MTX"},
      {"measurement": "Chronic Sinusitis, %", "setting": "[1]; [4]", "result": "(7.1) %"},
      {"measurement": "Chronic Sinusitis, Incidence Rate", "setting": "[1]; [4]", "result": "1.0 Events/PY of MTX"},
      {"measurement": "Cough, %", "setting": "[1]; [4]", "result": "(7.1) %"},
      {"measurement": "Cough, Incidence Rate", "setting": "[1]; [4]", "result": "1.0 Events/PY of MTX"},
      {"measurement": "Dental Caries, %", "setting": "[1]; [4]", "result": "(7.1) %"},
      {"measurement": "Dental Caries, Incidence Rate", "setting": "[1]; [4]", "result": "1.0 Events/PY of MTX"},
      {"measurement": "Diarrhoea, %", "setting": "[1]; [4]", "result": "(7.1) %"},
      {"measurement": "Diarrhoea, Incidence Rate", "setting": "[1]; [4]", "result": "1.0 Events/PY of MTX"},
      {"measurement": "Dry Eye, %", "setting": "[1]; [4]", "result": "(7.1) %"},
      {"measurement": "Dry Eye, Incidence Rate", "setting": "[1]; [4]", "result": "1.0 Events/PY of MTX"},
      {"measurement": "Eye Disorders, %", "setting": "[1]; [4]", "result": "(7.1) %"},
      {"measurement": "Eye Disorders, Incidence Rate", "setting": "[1]; [4]", "result": "1.0 Events/PY of MTX"},
      {"measurement": "Gastrointestinal Disorders, %", "setting": "[1]; [4]", "result": "(35.7) %"},
      {"measurement": "Gastrointestinal Disorders, Incidence Rate", "setting": "[1]; [4]", "result": "6.0 Events/PY of MTX"},
      {"measurement": "Gout, %", "setting": "[1]; [4]", "result": "(35.7) %"},
      {"measurement": "Gout, Incidence Rate", "setting": "[1]; [4]", "result": "6.0 Events/PY of MTX"},
      {"measurement": "Headache, %", "setting": "[1]; [4]", "result": "(7.1) %"},
      {"measurement": "Headache, Incidence Rate", "setting": "[1]; [4]", "result": "1.0 Events/PY of MTX"},
      {"measurement": "Infections And Infestations, %", "setting": "[1]; [4]", "result": "(14.3) %"},
      {"measurement": "Infections And Infestations, Incidence Rate", "setting": "[1]; [4]", "result": "2.0 Events/PY of MTX"},
      {"measurement": "Infections And Infestations, Total Events", "setting": "[1]; [4]", "result": 2},
      {"measurement": "Leukopenia, %", "setting": "[1]; [4]", "result": "(7.1) %"},
      {"measurement": "Leukopenia, Incidence Rate", "setting": "[1]; [4]", "result": "1.0 Events/PY of MTX"},
      {"measurement": "Metabolism And Nutrition Disorders, %", "setting": "[1]; [4]", "result": "(35.7) %"},
      {"measurement": "Metabolism And Nutrition Disorders, Incidence Rate", "setting": "[1]; [4]", "result": "6.0 Events/PY of MTX"},
      {"measurement": "Nasopharyngitis, %", "setting": "[1]; [4]", "result": "(7.1) %"},
      {"measurement": "Nasopharyngitis, Incidence Rate", "setting": "[1]; [4]", "result": "1.0 Events/PY of MTX"},
      {"measurement": "Nausea, %", "setting": "[1]; [4]", "result": "(14.3) %"},
      {"measurement": "Nausea, Incidence Rate", "setting": "[1]; [4]", "result": "2.0 Events/PY of MTX"},
      {"measurement": "Nervous System Disorders, %", "setting": "[1]; [4]", "result": "(7.1) %"},
      {"measurement": "Nervous System Disorders, Incidence Rate", "setting": "[1]; [4]", "result": "1.0 Events/PY of MTX"},
      {"measurement": "Neutropenia, %", "setting": "[1]; [4]", "result": "(7.1) %"},
      {"measurement": "Neutropenia, Incidence Rate", "setting": "[1]; [4]", "result": "1.0 Events/PY of MTX"},
      {"measurement": "Pruritus, %", "setting": "[1]; [4]", "result": "(7.1) %"},
      {"measurement": "Pruritus, Incidence Rate", "setting": "[1]; [4]", "result": "1.0 Events/PY of MTX"},
      {"measurement": "Respiratory, Thoracic And Mediastinal Disorders, %", "setting": "[1]; [4]", "result": "(7.1) %"},
      {"measurement": "Respiratory, Thoracic And Mediastinal Disorders, Incidence Rate", "setting": "[1]; [4]", "result": "1.0 Events/PY of MTX"},
      {"measurement": "Skin And Subcutaneous Tissue Disorders, %", "setting": "[1]; [4]", "result": "(7.1) %"},
      {"measurement": "Skin And Subcutaneous Tissue Disorders, Incidence Rate", "setting": "[1]; [4]", "result": "1.0 Events/PY of MTX"},
      {"measurement": "Infections And Infestations, Incidence Rate", "setting": "[1]; human, in vivo, 4 weeks", "result": "1.8 Events/PY of MTX"},
      {"measurement": "Infections And Infestations, Total Events", "setting": "[1]; human, in vivo, 4 weeks", "result": 2},
      {"measurement": "tolerability of MTX", "setting": "[1]; oral 15 mg/week, all patients", "result": "tolerated"}
    ]},
    {"molecule": "pegloticase", "values": [
      {"measurement": "stability of pegloticase diluted in infusion bags", "setting": "[2]", "result": 4, "unit": "h"}
    ]}
  ]
}
